In patent US9833393B2, “Method and compositions for treating skin” (ELC Management LLC, priority 2015, dated 2017):

Tested on: per1 gene expression
Test: per1 gene expression activity, per1-luciferase reporter plasmid in transfected keratinocytes
Assay type: cell-based, human
Settings: NHEK, 16 hours incubation, luminescence
Procedure: Normal human epidermal keratinocytes (NHEK) were diluted in EpiLife Media MEP1500CA with supplement S001-5 added (Gibco, Cascade Biologics, Invitrogen) to form a concentration of 3×10^4 and plated onto a black walled 96 well microtiter plate by adding 100 μl in each well. The plate was incubated for 3 hours at 37° C. in 5% CO2. The media was removed and remaining adhered cells rinsed with EpiLife Media MEP1500CA, supplement free. A plasmid solution was prepared by diluting Tris-EDTA pH 8.0 buffer with plasmid pGL4.11 (DNA 2.0, Carlsbad, Calif.) to form a 1 mg/ml solution. This plasmid contained a per1 gene sequence and a luciferase reporter gene sequence. A transfection mixture was prepared by diluting EpiLife Media MEP1500CA, supplement free, to form a solution with 0.31 μg/ml of plasmid (obtained by adding appropriate amount of plasmid solution prepared above), 1.28% Plus™ Reagent (Catalog No. 11514-015, Invitrogen, Carlsbad, Calif.), and 3.22% Lipofectamine™ Transfection Reagent (Catalog No. 18324-012, Invitrogen, Carlsbad, Calif.). Transfection mixture, […] to each well and the plate incubated for 4 hours at 37° C. in 5% CO2. Then 80 μl of EpiLife Media MEP1500CA with supplement S001-5 was added to the well containing the control (media alone), the transfection mixture control (transfection mixture without any active ingredient). Test wells and transfection control wells. To the test wells 80 μl of test material solution (test material diluted in EpiLife Media MEP1500CA with supplement S001-5) was added. The wells were incubated for 16 hours at 37° C. in 5% CO2. Immediately prior to reading, Bright-Glo™ (Pro-Mega, Madison Wis.) was added to each well plate in the same volume as is currently in the well (e.g. a 1:1 dilution). Luminescence was measured in an LMax™ Microplate Luminometer (Molecular Devices, Sunnyvale, Calif.).

Compound	increase in per1 (0.01% concentration)	increase in per1 (0.05% concentration)	increase in per1 (0.1% concentration)	increase in per1 (100 uM concentration)
alpha bisabolol	0%	0%	0%	
COc1ccc2[nH]cc(CCNC(C)=O)c2c1 [melatonin]				39.2%
